Test results from patent US20240300991A1, “NUCLEOSIDE DERIVATIVE HAVING MULTI-TARGET KINASE INHIBITORY ACTIVITY AND PHARMACEUTICAL COMPOSITION FOR PREVENTING AND TREATING CANCER COMPRISING SAME” (FUTURE MEDICINE CO., LTD., priority 2021, published 2024).

How the values were obtained:
CSNK1D = biological target: T1, CSNK1D (Homo sapiens, UniProt P48730); test: Kinase inhibition test (DNA-tagged kinase, affinity resin, qPCR readout); assay type: binding; set-up: key: (−) indicates no effect; (+) indicates weak inhibitory activity; (++) indicates a moderate level of inhibitory activity; (+++) indicates strong inhibitory activity; conditions: 1 μM of compound
T1 construct: made in house
Text: (§1) In order to examine the inhibitory activity of the nucleoside derivatives of the present invention synthesized in the Preparation Examples against kinases, the nucleoside derivatives were confirmed to have inhibitory activity against neurotrophic tyrosine kinase receptor type 1 or tropomyosin receptor kinase A (NTRK1), casein kinase 1 isoform delta (CSNK1D), dual specificity tyrosine-phosphorylation-regulated kinase 1A (DYRK1A), dual specificity tyrosine-phosphorylation-regulated kinase 1B (DYRK1B) and receptor-type tyrosine-protein kinase or fms like tyrosine kinase 3 or cluster of differentiation antigen 135 (CD135) or fetal liver kinase-2 (Flk2) (FLT3).
(§2) The inhibition measurement method is as follows. Most of the kinases were produced by culturing a phage in which BL21 E. coli was tagged with a kinase at 32° C. until lysis, followed by centrifugation and filtration. Further, the kinases were produced using HEK-293 cells. Thereafter, the kinases were DNA tagged for qPCR. After an affinity resin was prepared by stirring a biotin-tagged substrate onto streptavidin-coated beads for 30 minutes, a non-specifically bound substrate was washed with a buffer (SeaBlock (Pierce), 1% BSA, 0.05% Tween 20, 1 mM DTT).
(§3) For a kinase test, the kinase, the substrate, the affinity resin, and a test material dissolved in dimethyl sulfoxide were stirred together in a buffer (20% SeaBlock, 0.17×PBS, 0.05% Tween20, and 6 mM DTT) at room temperature for 1 hour. Thereafter, an affinity substrate was washed with a buffer (1×PBS, 0.05% Tween20), and then suspended in an elution buffer (1×PBS, 0.05% Tween20, 0.5 μM non-biotinylated affinity ligand), and the resulting suspension was stirred. The concentration of the kinase was quantified by qPCR.

NTRK1 = biological target: T2, NTRK1 (Homo sapiens, UniProt P04629); test: as above; assay type: binding; set-up: key: (−) indicates no effect; (+) indicates weak inhibitory activity; (++) indicates a moderate level of inhibitory activity; (+++) indicates strong inhibitory activity; conditions: 1 μM of compound
T2 construct: made in house
Text: as §1, §2, §3

DYRK1B = biological target: T3, DYRK1B (Homo sapiens, UniProt Q9Y463); test: as above; assay type: binding; set-up: key: (−) indicates no effect; (+) indicates weak inhibitory activity; (++) indicates a moderate level of inhibitory activity; (+++) indicates strong inhibitory activity; conditions: 1 μM of compound
T3 construct: made in house
Text: as §1, §2, §3

DYRK1A = biological target: T4, DYRK1A (Homo sapiens, UniProt Q13627); test: as above; assay type: binding; set-up: key: (−) indicates no effect; (+) indicates weak inhibitory activity; (++) indicates a moderate level of inhibitory activity; (+++) indicates strong inhibitory activity; conditions: 1 μM of compound
T4 construct: made in house
Text: as §1, §2, §3

[1] = tested on: SNU638 (stomach cancer cells); test: Inhibitory activity against cancer cells (sulforhodamine B staining); assay type: cell-based; conditions: 3 days, SRB staining
Protocol: (§4) In order to examine the anticancer activity of the nucleoside derivatives of the present invention synthesized in the Preparation Examples, the ICso of each of A549 (lung cancer cells), HCT116 (colon cancer cells), MDA-MB-231 (breast cancer cells), SK-Hep-1 (liver cancer cells), SNU638 (stomach cancer cells) and PC-3 (prostate cancer cells) against cancer cells was measured.
(§5) The test method is as follows. Cells were allowed to stand for 1 day and set as a control on day 0. Further, after a test material was added to the cells, the cells were allowed to stand for 3 days. Thereafter, the cells were stained with 1% acetic acid and 0.4% sulforhodamine B. The stained cells were dried and dissolved in 10 mM Tris (pH 10.0). Absorbance was measured at 515 nm, and the degree of cell division was determined using the following equation. After calculation as Cell division (%)=(average absorbancetest material−average absorbanceday 0)/(average absorbance control-average absorbanceday 0)×100, the degree of cell division was calculated through a non-linear regression analysis using Table Curve 2D v5.01 (Systat Software Inc., San Jose, CA, USA).

[2] = tested on: MDA-MB-231 (breast cancer cells); test: as above; assay type: cell-based; conditions: 3 days, SRB staining
Protocol: as §4, §5

[3] = tested on: SK-Hep-1 (liver cancer cells); test: as above; assay type: cell-based; conditions: 3 days, SRB staining
Protocol: as §4, §5

A549 (lung cancer cells) = test: as above; assay type: cell-based; conditions: 3 days, SRB staining
Protocol: as §4, §5

[4] = tested on: HCT116 (colon cancer cells); test: as above; assay type: cell-based; conditions: 3 days, SRB staining
Protocol: as §4, §5

[5] = tested on: PC-3 (prostate cancer cells); test: as above; assay type: cell-based; conditions: 3 days, SRB staining
Protocol: as §4, §5

T2 sequence (P04629 33-796): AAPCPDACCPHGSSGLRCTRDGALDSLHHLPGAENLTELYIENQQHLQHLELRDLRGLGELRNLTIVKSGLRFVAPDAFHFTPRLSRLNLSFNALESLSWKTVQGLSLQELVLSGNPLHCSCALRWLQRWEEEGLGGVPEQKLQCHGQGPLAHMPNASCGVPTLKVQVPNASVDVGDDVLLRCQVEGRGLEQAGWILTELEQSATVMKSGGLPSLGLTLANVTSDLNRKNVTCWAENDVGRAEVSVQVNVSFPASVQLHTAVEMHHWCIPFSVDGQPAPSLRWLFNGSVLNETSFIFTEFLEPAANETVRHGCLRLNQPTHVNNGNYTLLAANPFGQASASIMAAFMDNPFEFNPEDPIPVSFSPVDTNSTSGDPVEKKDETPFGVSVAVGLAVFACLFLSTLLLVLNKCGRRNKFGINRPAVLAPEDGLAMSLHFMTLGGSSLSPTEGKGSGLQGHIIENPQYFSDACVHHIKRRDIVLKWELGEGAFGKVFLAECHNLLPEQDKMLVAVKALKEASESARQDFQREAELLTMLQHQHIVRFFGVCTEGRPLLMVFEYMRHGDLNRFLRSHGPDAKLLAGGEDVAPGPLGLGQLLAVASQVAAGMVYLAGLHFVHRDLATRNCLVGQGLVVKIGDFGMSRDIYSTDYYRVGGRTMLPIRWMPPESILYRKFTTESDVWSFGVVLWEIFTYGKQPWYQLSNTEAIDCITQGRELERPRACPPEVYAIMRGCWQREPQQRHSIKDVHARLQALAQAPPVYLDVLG
T1 sequence (P48730 whole entry): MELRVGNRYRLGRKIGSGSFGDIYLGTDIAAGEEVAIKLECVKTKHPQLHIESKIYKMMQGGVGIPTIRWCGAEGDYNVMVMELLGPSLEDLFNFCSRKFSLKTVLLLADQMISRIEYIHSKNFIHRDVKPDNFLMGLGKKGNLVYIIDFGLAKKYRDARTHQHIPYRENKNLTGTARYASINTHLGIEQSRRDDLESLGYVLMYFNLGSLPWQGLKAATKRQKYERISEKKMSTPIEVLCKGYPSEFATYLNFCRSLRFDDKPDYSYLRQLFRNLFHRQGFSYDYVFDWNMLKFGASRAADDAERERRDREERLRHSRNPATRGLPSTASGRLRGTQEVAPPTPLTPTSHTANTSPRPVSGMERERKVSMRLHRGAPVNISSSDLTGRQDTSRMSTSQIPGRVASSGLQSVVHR
T3 sequence (Q9Y463 whole entry): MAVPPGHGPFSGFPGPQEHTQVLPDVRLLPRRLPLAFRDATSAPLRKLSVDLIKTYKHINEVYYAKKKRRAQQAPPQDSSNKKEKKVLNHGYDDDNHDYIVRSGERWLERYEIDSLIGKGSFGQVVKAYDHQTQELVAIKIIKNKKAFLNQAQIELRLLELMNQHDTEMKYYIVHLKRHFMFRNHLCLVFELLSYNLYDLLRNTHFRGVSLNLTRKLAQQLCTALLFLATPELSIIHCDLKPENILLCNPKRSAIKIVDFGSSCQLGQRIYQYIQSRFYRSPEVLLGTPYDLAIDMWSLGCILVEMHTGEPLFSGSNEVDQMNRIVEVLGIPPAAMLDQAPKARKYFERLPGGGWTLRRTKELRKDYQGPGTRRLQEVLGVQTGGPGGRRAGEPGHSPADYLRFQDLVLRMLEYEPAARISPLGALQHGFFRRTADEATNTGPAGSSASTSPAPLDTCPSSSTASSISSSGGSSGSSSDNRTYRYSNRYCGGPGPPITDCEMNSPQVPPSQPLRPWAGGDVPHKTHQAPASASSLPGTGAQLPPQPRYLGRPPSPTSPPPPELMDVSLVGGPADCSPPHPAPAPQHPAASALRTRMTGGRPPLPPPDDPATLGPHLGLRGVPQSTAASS

Compound	CSNK1D inhibitory activity (CSNK1D)	NTRK1 inhibitory activity (NTRK1)	DYRK1B inhibitory activity (DYRK1B)	DYRK1A inhibitory activity (DYRK1A)	IC50 ([1]; Homo sapiens, SNU-638, 72 h) [µM]	IC50 ([2]; Homo sapiens, 72 h) [µM]	IC50 ([3]; Homo sapiens, SK-HEP1, 72 h) [µM]	IC50 (A549 (lung cancer cells); Homo sapiens, 72 h) [µM]	IC50 ([4]; Homo sapiens, HCT-116, 72 h) [µM]	IC50 ([5]; 72 h) [µM]	IC50 [1] [µM]	IC50 [2] [µM]	IC50 [3] [µM]	IC50 (A549 (lung cancer cells)) [µM]	IC50 [4] [µM]	IC50 [5] [µM]
N#Cc1cn([C@@H]2S[C@H](CO)[C@@H](O)[C@H]2O)c2ncnc(N)c12 [Compound 5, 4-amino-7-((2R,3R,4S,5R)-3,4-dihydroxy-5-(hydroxymethyl)tetrahydrothiophen-2-yl)-7H-pyrrolo[2,3-d]pyrimidine-5-carbonitrile]	++	++	++	+++	1.22	2.24	1.79	2.58	1.59	2.18						
C#Cc1cn([C@@H]2S[C@H](CO)[C@@H](O)[C@H]2O)c2nc(Cl)nc(N)c12 [Compound 14, (2R,3R,4S,5R)-2-(4-amino-2-chloro-5-ethynyl-7H-pyrrolo[2,3-d]pyrimidin-7-yl)-5-(hydroxymethyl)tetrahydrothiophene-3,4-diol]	++	++	+++	+++	5.46	0.52	1.37	0.35	7.28	2.45						
N#Cc1cn([C@@H]2S[C@H](CNC(N)=O)[C@@H](O)[C@H]2O)c2ncnc(N)c12 [Compound 11aii]	++	++	++	++							6.73	1.08	2.87	2.45	1.83	3.56
C#Cc1cn([C@@H]2S[C@H](CO)[C@@H](O)[C@H]2O)c2ncnc(N)c12 [Compound 3, (2R,3R,4S,5R)-2-(4-amino-5-ethynyl-7H-pyrrolo[2,3-d]pyrimidin-7-yl)-5-(hydroxymethyl)tetrahydrothiophene-3,4-diol]	++	++	+++	+++	0.03	0.05	0.05	0.06	0.03	0.004						
NC(=O)c1cn([C@@H]2S[C@H](CO)[C@@H](O)[C@H]2O)c2ncnc(N)c12 [Compound 6, 4-amino-7-((2R,3R,4S,5R)-3,4-dihydroxy-5-(hydroxymethyl)tetrahydrothiophen-2-yl)-7H-pyrrolo[2,3-d]pyrimidine-5-carboxamide]	++	+	++	+++	1.13	2.1	1.66	1.99	1.35	1.8						

The next lines start with the values.

CSNK1D inhibitory activity (CSNK1D)	NTRK1 inhibitory activity (NTRK1)	DYRK1B inhibitory activity (DYRK1B)	DYRK1A inhibitory activity (DYRK1A)	IC50 ([1]; Homo sapiens, SNU-638, 72 h) [µM]	IC50 ([2]; Homo sapiens, 72 h) [µM]	IC50 ([3]; Homo sapiens, SK-HEP1, 72 h) [µM]	IC50 (A549 (lung cancer cells); Homo sapiens, 72 h) [µM]	IC50 ([4]; Homo sapiens, HCT-116, 72 h) [µM]	IC50 ([5]; 72 h) [µM]	IC50 [1] [µM]	IC50 [2] [µM]	IC50 [3] [µM]	IC50 (A549 (lung cancer cells)) [µM]	IC50 [4] [µM]	IC50 [5] [µM]	Compound
+++	+++	++	++	10.8	14.5	13	12.2	12.8	14							C#Cc1cn([C@@H]2S[C@H](CNCC)[C@@H](O)[C@H]2O)c2ncnc(N)c12 [Compound 11b, (2R,3R,4S,5R)-2-(4-amino-5-ethynyl-7H-pyrrolo[2,3-d]pyrimidin-7-yl)-5-((ethylamino)methyl)tetrahydrothiophene-3,4-diol]
+	++	−	−							> 50	30.6	8.31	> 50	> 50	> 50	Nc1ncnc2c1c(C#CC1CC1)cn2[C@@H]1S[C@H](CO)[C@@H](O)[C@H]1O [Compound 4d]
++	++	+++	+++							1.31	1.32	0.64	0.96	0.86	1.74	Nc1ncnc2c1c(-c1ccco1)cn2[C@@H]1SC[C@@H](O)[C@H]1O [Compound 13b]
++	++	++	++							5.66	5.93	7.81	6.83	4.31	9.9	Nc1ncnc2c1c(-c1ccccc1)cn2[C@@H]1SC[C@@H](O)[C@H]1O [Compound 13d]
++	++	++	++							0.13	0.29	0.18	0.27	0.23	0.23	C#Cc1cn([C@@H]2S[C@H](COC(=O)c3ccc(Cl)cc3)[C@@H](O)[C@H]2O)c2ncnc(N)c12 [Compound 7c]
++	+++	++	++							4.84	4.68	4.39	6.47	6.42	5.59	C#Cc1cn([C@@H]2S[C@H](COC(=O)c3c(C)cccc3C)[C@@H](O)[C@H]2O)c2ncnc(N)c12 [Compound 7e]
++	++	++	++							9.34	6.78	10	45.2	12.5	4.65	NC(=O)c1cn([C@@H]2S[C@H](CNC(=O)c3ccccc3)[C@@H](O)[C@H]2O)c2ncnc(N)c12 [Compound 8e]
+++	+++	++	++							4.12	5.16	2.74	2.91	3.38	7.01	Nc1ncnc2c1c(-c1cccs1)cn2[C@@H]1SC[C@@H](O)[C@H]1O [Compound 13c]
++	+++	+++	++							23.7	9.34	13.8	11.2	8.9	6.67	N#Cc1cn([C@@H]2S[C@H](CNC(=O)c3ccccc3)[C@@H](O)[C@H]2O)c2ncnc(N)c12 [Compound 8d]
++	+++	+++	+++							3.54	8.24	1.07	6.05	2.21	> 50	Nc1ncnc2c1c(-c1ccco1)cn2[C@@H]1S[C@H](COC(=O)c2ccccc2)[C@@H](O)[C@H]1O [Compound 7a]
